Laboratory results published in patent publication EP0166355A2, “Substituted aminophenyl compounds and acylaminophenyl compounds and pharmaceutical compositions containing them” (Merck & Co., Inc., priority 1984, dated 1986).
Peptide text beside a SMILES is read from it. * marks the point of attachment. X1 = O=C(c1ccccc1)c1ccccc1N*; Cbz = O=C(OCc1ccccc1)*

Target: T1, CCK receptor (Rattus norvegicus, UniProt P30551)
T1 construct: The whole pancreas was dissected free of fat tissue and was homogenized; from tissue; host or cells: rat whole pancreas membrane homogenate
T1 sequence (P30551 1-444): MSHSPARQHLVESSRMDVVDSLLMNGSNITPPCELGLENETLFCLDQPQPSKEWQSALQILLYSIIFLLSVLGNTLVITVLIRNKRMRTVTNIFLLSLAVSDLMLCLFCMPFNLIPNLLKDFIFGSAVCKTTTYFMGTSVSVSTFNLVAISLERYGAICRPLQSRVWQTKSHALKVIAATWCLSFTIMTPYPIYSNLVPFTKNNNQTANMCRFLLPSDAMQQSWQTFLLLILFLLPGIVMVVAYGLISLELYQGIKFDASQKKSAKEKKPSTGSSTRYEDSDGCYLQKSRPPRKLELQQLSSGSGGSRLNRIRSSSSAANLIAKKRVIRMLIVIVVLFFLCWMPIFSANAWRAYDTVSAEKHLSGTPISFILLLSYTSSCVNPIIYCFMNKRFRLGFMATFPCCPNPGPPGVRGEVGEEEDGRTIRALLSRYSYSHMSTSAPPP
Experiment: CCK Receptor Binding (Pancreas), 125I-CCK-33
Design: species or system rats
Conditions: inhibition of 125I-CCK-33 binding, rat pancreas membranes, 37°C, 30 minutes; read-out: IC50(µM) ^125I-CCK Pancreas
Experimental: 1. CCK Receptor Binding (Pancreas)
CCK-33 was radiolabeled with ^125 I-Bolton Hunter reagent (2000 Ci/mmole) as described by Sankara et al. (J. Biol. Chem. 254: 9349-9351, 1979). Receptor binding was performed according to Innis and Snyder (Proc. Natl. Acad. Sci. 77: 6917-6921, 1980) with the minor modification of adding the additional protease inhibitors, phenylmethane sulfonyl fluoride and o-phenanthroline. The latter two compounds have no effect on the ^125I-CCK receptor binding assay.
Male Sprague-Dawley rats (200-350g) were sacrificed by decapitation. The whole pancreas was dissected free of fat tissue and was homogenized in 20 volumes of ice-cold 50 mM, Tris HC1 (pH 7.7 at 25°C) with a Brinkmann Polytron PT 10. The homogenates were centrifuged at 48,000 g for 10 min. Pellets were resuspended in Tris Buffer, centrifuged as above and resuspended in 200 volumes of binding assay buffer (50 mM Tris HC1, pH 7.7 at 25°C, 5 mM dithiothrietol, 0.1 mM bacitracin, 1.2 mM phenylmethane sulfonyl fluoride and 0.5 mM o-phenanthroline). For the binding assay, 25 µl of buffer (for total binding) or unlabeled CCK-8 sulfate to give a final concentration of lµM (for nonspecific binding) or the compounds of Formula I (for determination inhibition of 125I-CCK binding) and 25 ul of ^125 I-CCK-33 (30,000-40,000 cpm) were added to 450 µl of the membrane suspensions in microfuge tubes. All assays were run in duplicate or triplicate. The reaction mixtures were incubated at 37°C for 30 minutes and centrifuged in a Beckman Microfuge (4 minutes) immediately after adding 1 ml of ice-cold incubation buffer. The supernatant was aspirated and discarded, pellets were counted with a Beckman gamma 5000. For Scatchard analysis (Ann. N.Y. Acad. Sci. 51: 660, 1949), ^125I-CCK-33 was progressively diluted with increasing concentrations of CCK-33.

Row | SMILES | IC50 [µM]
1 | O=C(NC(Cc1cccs1)C(=O)Nc1ccccc1C(=O)c1ccccc1F)c1ccsc1 (racemic) [Example 12, 2-N-(N^a-3-Thienoyl-DL-B-(2-thienyl)alanyl)amino 2'-fluorobenzophenone] | 1.3
2 | CC(C)(C)OC(=O)N[C@@H](Cc1c[nH]c2ccccc12)C(=O)Nc1ccccc1C(=O)c1ccccc1F [Example 3, 2-N-(N^a-Boc-L-tryptophanyl)amino-2'-fluorobenzo phenone] | 3.7
3 | CC(C)(C)OC(=O)N[C@@H](Cc1c[nH]c2ccccc12)C(=O)Nc1ccccc1C(=O)c1ccccc1 [Example 5, 2-N-(N^a-Boc-L-tryptophanyl)aminobenzophenone] | 4.8
4 | O=C(CCc1c[nH]c2ccccc12)Nc1ccc(Cl)cc1C(=O)c1ccccc1 [Example 13, 2-N-[3-(3'indolyl)propanoyl]amino-5-chlorobenzophenone] | 10
5 | O=C(N[C@@H](Cc1c[nH]c2ccccc12)C(=O)Nc1ccccc1C(=O)c1ccccc1)c1ccc(Cl)cc1 [Example 15, 2-N-(N^α-p-Chlorobenzoyl-L-tryptophanyl)aminobenzophenone] | 0.9
6 | CC(=O)N[C@@H](Cc1c[nH]c2ccccc12)C(=O)Nc1ccccc1C(=O)c1ccccc1 [Example 16, 2-N-(N^a-acetyl-L-tryptophanyl)aminobenzophenone] | 1
7 | CC(C)(C)OC(=O)NCC(=O)N[C@@H](Cc1c[nH]c2ccccc12)C(=O)Nc1ccccc1C(=O)c1ccccc1 [Example 18, 2-N-(N^a-Boc-glycyl-L-tryptophanyl)aminobenzophenone] | 8
8 | CSCC[C@H](NC(=O)OC(C)(C)C)C(=O)NCC(=O)N[C@@H](Cc1c[nH]c2ccccc12)C(=O)Nc1ccccc1C(=O)c1ccccc1 [Example 19, 2-N-(N^a-Boc-L-methionyl-glycyl-L-tryptophanyl)aminobenzophenone] | 2.4

Further lines, results first:

Row | IC50 [µM] | SMILES
9 | 2.2 | O=C(N[C@@H](CC1CNc2ccccc21)C(=O)Nc1ccc(Cl)cc1C(=O)c1ccccc1)c1ccsc1 (single isomer, unassigned) [Example 22B]
10 | 0.74 | CC(C)(C)OC(=O)N[C@@H](Cc1c[nH]c2ccccc12)C(=O)Nc1ccc(Cl)cc1C(=O)c1ccccc1 [Example 2, 2-N-(N-a-Boc-L-tryptophanyl)amino-5-chlorobenzo phenone]
11 | 0.19 | O=C(N[C@@H](Cc1c[nH]c2ccccc12)C(=O)Nc1ccccc1C(=O)c1ccccc1)c1ccsc1 [Example 17, 2-N-(N^a-3-thienoyl-L-tryptophanyl)aminobenzophenone]
12 | 0.4 | O=C(N[C@@H](Cc1c[nH]c2ccccc12)C(=O)Nc1ccc(Cl)cc1C(=O)c1ccccc1)c1ccsc1 [Example 21, 2-N-(N^a-3-thienoyl-L-tryptophanyl)amino-5-chlorobenzophenone]

Same assay, conditions: read-out: IC50(µM) ^125I-CCK Pancreas; inhibition of 125I-CCK-33 binding, rat pancreas membranes, 37°C, 30 minutes

Row | SMILES | IC50 [µM]
13 | CSCC[C@H](NC(=O)[C@H](Cc1ccc(O)cc1)NC(=O)OCc1ccccc1)C(=O)NCC(=O)N[C@@H](Cc1c[nH]c2ccccc12)C(=O)Nc1ccccc1C(=O)c1ccccc1 [Example 20, 2-N-(N^a-Benzyloxycarbonyl-L-tryosyl-L-methionyl-glycyl-L-tryptophanyl)aminobenzophenone] (Cbz-YMGW-X1) | 2
